Test results reported in ChEMBL document CHEMBL1125650, “Relationships between the structure of taxol analogues and their antimitotic activity” (J Med Chem, 1991).
Converted amounts (≈) assume the structure as drawn.

Legend:
[1] = Cytotoxicity was measured as ratio of its IC50 value to that of compound 13a; type: functional
[2] = organism: Sus scrofa; test: Ratio of the concentration leading to a 50% inhibition of the rate of pig brain microtubule disassembly to that of taxol (0.4 uM) was determined; type: functional
[3] = Ratio of the concentration of compound leading to a 50% inhibition of the rate of pig brain microtubule disassembly to that of compound 13a was determined; type: functional
[4] = tested on: P388; test: The concentration required to 50% inhibition of the P388 leukemic cell proliferation; type: functional, cell-based; settings: Mus musculus

IC50 [4] | SMILES | Ratio [1] | Ratio [2] | Ratio [3]
0.17 µg/mL (≈ 0.2 µM) | CC(=O)O[C@H]1C(=O)[C@@]2(C)[C@H]([C@H](OC(=O)c3ccccc3)[C@]3(O)C[C@H](OC(=O)[C@H](O)[C@@H](NC(=O)OC(C)(C)C)c4ccccc4)C(C)=C1C3(C)C)[C@]1(OC(C)=O)CO[C@@H]1C[C@@H]2O | 1.3 | 0.5 | 1
4 µg/mL (≈ 4.95 µM) | CC(=O)O[C@@]12CO[C@@H]1C[C@H](O)[C@@]1(C)C(=O)[C@H](O)C3=C(C)[C@@H](OC(=O)C(NC(=O)OC(C)(C)C)C(O)c4ccccc4)C[C@@](O)([C@@H](OC(=O)c4ccccc4)[C@H]21)C3(C)C (stereo partly specified) | 31 | 10 | 20
0.12 µg/mL (≈ 0.126 µM) | CC(=O)O[C@@]12CO[C@@H]1C[C@H](OC(=O)C(N)Cc1ccccc1)[C@@]1(C)C(=O)[C@H](O)C3=C(C)[C@@H](OC(=O)C(O)C(NC(=O)OC(C)(C)C)c4ccccc4)C[C@@](O)([C@@H](OC(=O)c4ccccc4)[C@H]21)C3(C)C (stereo partly specified) | 1 | 1 | 2
> 10 µg/mL | CC(=O)O[C@@]12CO[C@@H]1C[C@H](O)[C@@]1(C)C(=O)[C@H](O)C3=C(C)[C@@H](OC(=O)[C@@H](O)[C@H](NC(=O)OC(C)(C)C)c4ccccc4)C[C@@](O)([C@@H](OC(=O)c4ccccc4)[C@H]21)C3(C)C | >77 | 30 | 60
